In patent US20140350050A1, “PYRIDINE COMPOUNDS AS INHIBITORS OF KINASE” (TELIGENE LTD., priority 2011, published 2014):
Where two headings read alike, the source gives them in different places.

What was measured:
ALK kinase = ALK kinase (Homo sapiens, UniProt Q9UM73); test: ALK kinase assay; assay type: biochemical
Procedure: An in vitro assay which determines the ability of a test compound to inhibit ALK kinase. a) kinase-tagged T7 phage strains were prepared in an E. coli host derived from the BL21 strain. E. coli were grown to log-phase and infected with T7 phage and incubated with shaking at 32° C. until lysis. The lysates were centrifuged and filtered to remove cell debris. The remaining kinases were produced in HEK-293 cells and subsequently tagged with DNA for qPCR detection. […] The liganded beads were blocked with excess biotin and washed with blocking buffer (SeaBlock (Pierce), 1% BSA, 0.05% Tween 20, 1 mM DTT) to remove unbound ligand and to reduce non-specific binding. […] All reactions were performed in polystyrene 96-well plates in a final volume of 0.135 ml. […] The kinase concentration in the eluates was measured by qPCR. […]
b) An alternative method to conduct the kinase assay with the following condition and procedure: Reagent: Base Reaction buffer; 20 mM Hepes (pH 7.5), 10 mM MgCl2, 1 mM EGTA, 0.02% Brij35, 0.02 mg/ml BSA, 0.1 mM Na3VO4, 2 mM DTT, 1% DMSO.
1. Preparing indicated substrate in freshly prepared Base Reaction Buffer
2. Delivering any required cofactors to the substrate solution above
3. Delivering indicated kinase into the substrate solution and gently mix
4. Delivering compounds in DMSO into the kinase reaction mixture
5. Delivering ^33P-ATP (specific activity 0.01 μCi/μl final) into the reaction mixture to initiate the reaction.
6. Incubating kinase reaction for 120 min. at room temperature
7. Reactions are spotted onto P81 ion exchange paper (Whatman #3698-915)
8. Washing filters extensively in 0.75% Phosphoric acid. […]
c) An alternative method to conduct the kinase assay with the following condition and procedure: The assay was performed using Kinase-Glo Plus luminescence kinase assay kit (Promega). It measures kinase activity by quantitating the amount of ATP remaining in solution following a kinase reaction. The luminescent signal from the assay is correlated with the amount of ATP present and is inversely correlated with the amount of kinase activity.
The compound were diluted in 10% DMSO and 5 μl of the dilution was added to a 50 μl reaction so that the final concentration of DMSO is 1% in all of reactions. All of the enzymatic reactions were conducted at 30° C. for 40 minutes. The 50 μl reaction mixture contains 40 mM Tris, pH 7.4, 10 mM MgCl2, 0.1 mg/ml BSA, 1 mM DTT, 0.2 mg/ml substrate peptide, 10 μM ATP and ALK (Table 2.3.1). After the enzymatic reaction, 50 μl of Kinase-Glo Plus Luminescence kinase assay solution (Promega) was added to each reaction and incubate the plate for 5 minutes at room temperature. Luminescence signal was measured using a BioTek Synergy 2 microplate reader. ALK activity assays were performed in duplicate at each concentration. The luminescence data were analyzed using the computer software, Graphpad Prism. The difference between luminescence intensities in the absence of ALK (Lut) and in the presence of ALK (Luc) was defined as 100% activity (Lut−Luc). Using luminescence signal (Lu) in the presence of the compound, % activity was calculated as % activity={(Lut−Lu)/(Lut−Luc)}×100%, where Lu=the luminescence intensity in the presence of the compound (all percent activities below zero were shown zero in the table). The values of % activity versus a series of compound concentrations were then plotted using non-linear regression analysis of Sigmoidal dose-response curve generated with the equation Y=B+(T−B)/1+10^((Log EC50−X)×Hill Slope), where Y=percent activity, B=minimum percent activity, T=maximum percent activity, X=logarithm of compound and Hill Slope=slope factor or Hill coefficient. The IC50 value was determined by the concentration causing a half-maximal percent activity.

[1] = PK (pharmacokinetic) study in rat, cassette dosing; assay type: in vivo; settings: male, Wistar, plasma
Procedure: A representative protocol for the PK (pharmacokinetic) is as followed: Animals used were Wistar rat, male and weight about 300-359 grams. Compound 21 and 22 were given either IV or oral to the same animals by cassette dosing. The dose for each compound is 1 mg/kg (volume 5 ml/kg) IV and 2 mg/kg (volume 10 ml/kg) oral. The formulation for IV was in PBS, the pH is adjusted by dilute HCl until compounds were totally dissolved. 0.5% Na-CMC suspension was used for the oral formulation. Sample collection: for IV route, plasma sample were collected at the time point 0.083, 0.25, 0.5, 1, 1.5, 2, 4, 6, 8, 12, 24 h. For oral route, plasma sample were collected at the time point 0.167, 0.33, 0.5, 1, 2, 4, 6, 8, 12, 24 h. Analysis: LC-MS/MS is used to calculate PK parameters: t1/2, tmax, Cmax, Vss and AUC etc.

Sequence of ALK kinase (Q9UM73 19-1620): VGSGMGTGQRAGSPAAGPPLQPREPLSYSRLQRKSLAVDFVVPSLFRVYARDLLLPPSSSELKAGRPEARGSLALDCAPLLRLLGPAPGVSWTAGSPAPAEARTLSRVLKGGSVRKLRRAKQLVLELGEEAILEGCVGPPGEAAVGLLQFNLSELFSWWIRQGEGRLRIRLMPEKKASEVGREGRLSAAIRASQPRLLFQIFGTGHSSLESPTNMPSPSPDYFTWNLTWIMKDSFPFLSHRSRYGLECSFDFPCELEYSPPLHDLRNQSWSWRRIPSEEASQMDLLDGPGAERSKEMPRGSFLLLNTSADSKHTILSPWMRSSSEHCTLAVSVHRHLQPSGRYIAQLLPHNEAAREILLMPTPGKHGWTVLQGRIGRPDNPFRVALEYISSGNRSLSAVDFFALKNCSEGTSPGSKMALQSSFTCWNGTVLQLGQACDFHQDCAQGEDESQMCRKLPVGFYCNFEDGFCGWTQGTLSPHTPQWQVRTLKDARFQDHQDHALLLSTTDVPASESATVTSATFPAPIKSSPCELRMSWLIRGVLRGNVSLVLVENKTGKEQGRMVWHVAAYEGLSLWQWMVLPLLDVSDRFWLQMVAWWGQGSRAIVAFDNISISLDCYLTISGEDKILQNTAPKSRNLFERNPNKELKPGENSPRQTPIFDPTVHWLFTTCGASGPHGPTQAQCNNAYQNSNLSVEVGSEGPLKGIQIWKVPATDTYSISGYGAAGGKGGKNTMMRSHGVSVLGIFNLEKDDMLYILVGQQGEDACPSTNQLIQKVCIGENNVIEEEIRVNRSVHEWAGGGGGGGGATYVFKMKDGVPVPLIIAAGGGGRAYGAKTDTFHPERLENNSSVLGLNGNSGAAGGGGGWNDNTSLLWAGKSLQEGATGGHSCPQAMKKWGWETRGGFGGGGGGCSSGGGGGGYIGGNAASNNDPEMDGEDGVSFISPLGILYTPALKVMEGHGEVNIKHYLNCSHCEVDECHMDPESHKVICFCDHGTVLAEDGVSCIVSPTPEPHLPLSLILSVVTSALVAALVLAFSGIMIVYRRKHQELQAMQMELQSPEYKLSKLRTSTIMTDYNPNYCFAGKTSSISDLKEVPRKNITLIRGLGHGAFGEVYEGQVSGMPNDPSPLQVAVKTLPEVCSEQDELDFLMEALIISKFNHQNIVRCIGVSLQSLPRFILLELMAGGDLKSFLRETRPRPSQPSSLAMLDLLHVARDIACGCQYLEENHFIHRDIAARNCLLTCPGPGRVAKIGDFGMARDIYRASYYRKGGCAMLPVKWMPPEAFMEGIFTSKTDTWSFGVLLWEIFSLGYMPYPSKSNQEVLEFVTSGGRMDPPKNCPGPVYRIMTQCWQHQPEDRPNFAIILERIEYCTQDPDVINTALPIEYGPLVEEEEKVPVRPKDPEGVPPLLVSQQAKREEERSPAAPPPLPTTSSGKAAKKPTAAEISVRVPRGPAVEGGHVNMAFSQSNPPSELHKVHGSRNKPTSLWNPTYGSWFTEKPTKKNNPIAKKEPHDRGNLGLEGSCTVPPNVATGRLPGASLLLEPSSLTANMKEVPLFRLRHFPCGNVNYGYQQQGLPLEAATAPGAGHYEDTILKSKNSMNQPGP

## [2H]C([2H])([2H])C([2H])([2H])N1CCC(n2cc(-c3cnc(N)c(O[C@H](C)c4c(Cl)ccc(F)c4Cl)c3)cn2)CC1 [Compound 22, (R)-3-(1-(2,6-dichloro-3-fluorophenyl)ethoxy)-5-(1-(1-d5-ethylpiperidin-4-yl)-1H-pyrazol-4-yl)pyridin-2-amine]
ALK kinase; ALK kinase assay, read-out: ALK (IC50 grading)
  IC50: ≤ 100 nM
ALK kinase; read-out: IC50 in the ALK kinase assay
  IC50: 1.35 nM
[1]; IV cassette 1 mg/kg
  AUC(0-inf): 337 ng·h/mL
  AUC(0-t): 336 ng·h/mL
  Cmax: 259 ng/mL
  MRT: 3.11 h
  Tmax: 0.083 h
  clearance: 49.5 mL/min/kg
  half-life: 3.04 h
[1]; oral cassette 2 mg/kg
  AUC(0-inf): 146 ng·h/mL
  AUC(0-t): 140 ng·h/mL
  Cmax: 21 ng/mL
  MRT: 5.28 h
  Tmax: 4 h
  half-life: 3.1 h
[1]; oral cassette 2 mg/kg vs IV 1 mg/kg, read-out: F (bioavailability)
  bioavailability: 20.8%
